SMILES strings stand for the structures.

The results in this text go back to patent US8889722B2, “Pharmaceutical composition containing optically active compound having thrombopoietin receptor agonist activity, and intermediate therefor” (Shionogi & Co., Ltd., priority 2007, dated 2014).

The target of one series is T1, human TPO receptor (Homo sapiens, UniProt P40238).
T1 construct: expressed in transfected cells; host or cells: BaF-B03 (mouse pro-B cell line), strain BaF/hTPOR
T1 sequence (P40238 26-635): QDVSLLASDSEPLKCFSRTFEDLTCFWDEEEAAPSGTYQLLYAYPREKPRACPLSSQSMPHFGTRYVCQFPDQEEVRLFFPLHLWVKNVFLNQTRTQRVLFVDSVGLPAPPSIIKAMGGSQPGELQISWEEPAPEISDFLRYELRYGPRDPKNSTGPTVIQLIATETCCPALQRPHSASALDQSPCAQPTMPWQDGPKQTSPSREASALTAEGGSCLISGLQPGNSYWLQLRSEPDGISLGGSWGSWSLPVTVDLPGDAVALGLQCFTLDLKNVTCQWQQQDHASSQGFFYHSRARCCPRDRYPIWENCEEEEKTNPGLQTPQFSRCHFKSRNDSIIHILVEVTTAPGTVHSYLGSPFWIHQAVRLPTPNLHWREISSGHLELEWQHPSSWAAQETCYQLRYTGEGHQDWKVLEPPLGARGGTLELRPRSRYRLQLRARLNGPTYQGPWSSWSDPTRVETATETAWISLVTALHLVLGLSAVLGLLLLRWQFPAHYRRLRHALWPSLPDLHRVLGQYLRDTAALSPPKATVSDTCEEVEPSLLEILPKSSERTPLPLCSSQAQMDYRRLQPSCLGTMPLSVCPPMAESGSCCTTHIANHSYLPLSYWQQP
Put plainly: TPO receptor responsiveness: proliferation of TPO-dependent BaF/hTPOR cells (WST-1). It is filed as cell-based. The settings on record: 20 hours culture, WST-1 absorption at 450 nm, concentration exhibiting half-maximum responsiveness of human TPO, read-out: ED50 (the source's name). On the procedure:
TPO receptor responsiveness of the compound represented by the formula (I) was measured using TPO-dependent cell strain BaF/hTPOR made by introducing a human TPO receptor gene into a BaF-B03 cell according to the method described in Collins et al., J. Cell. Physiol., 137: 293-298 (1988). A nucleotide sequence of a gene encoding thrombopoietin receptor is described in Vigon et al., Proc. Natl. Acad. Sci, 89:5640-5644 (1992). […] A BAF/hTPOR cell proliferated in a RPMI medium with 10% WEHI-3 culture solution added thereto was washed with PBS once, suspended in a RPMI medium with no WHEHI-3 culture solution added thereto, and cells were seeded on a 96-well microplate at a 5×10^4/well, and the present compound or TPO was added thereto. After cultured at 37° C. for 20 hours under 5% CO2 atmosphere, a WST-1 reagent (manufactured by Takara Shuzo, Co., Ltd) being a cell proliferation determination reagent was added, and absorption at 450 nm was measured after 4 hours.
Consider `CCCCCC[C@@H](OC)c1cccc(-c2csc(NC(=O)c3cc(Cl)c(/C=C(\C)C(=O)O)c(Cl)c3)n2)c1OC` [Compound C-1A, (R)-(E)-3-(2,6-dichloro-4-{4-[2-methyloxy-3-(1-methyloxyheptyl)phenyl]thiazol-2-ylcarbamoyl}phenyl)-2-methylacrylic acid], for which the EC50 was 3.09 nM. Turning to `CCCCCC[C@H](OC)c1cccc(-c2csc(NC(=O)c3cc(Cl)c(/C=C(\C)C(=O)O)c(Cl)c3)n2)c1OC` [Compound C-1B, (S)-(E)-3-(2,6-dichloro-4-{4-[2-methyloxy-3-(1-methyloxyheptyl)-phenyl]thiazol-2-ylcarbamoyl}phenyl)-2-methylacrylic acid], the EC50 was determined as 2.08 nM. In the case of `CCCCCCO[C@H](C)c1cccc(-c2csc(NC(=O)c3cc(Cl)c(/C=C(\C)C(=O)O)c(Cl)c3)n2)c1OC` [Compound C-3A, (R)-(E)-3-(2,6-dichloro-4-{4-[3-(1-hexyloxyethyl)-2-methyloxyphenyl]thiazol-2-ylcarbamoyl}phenyl)-2-methylacrylic acid], the EC50 is 1.4 nM. With `CCCCCCO[C@@H](C)c1cccc(-c2csc(NC(=O)c3cc(Cl)c(/C=C(\C)C(=O)O)c(Cl)c3)n2)c1OC` [Compound C-3B, (S)-(−)-(E)-3-(2,6-dichloro-4-{4-[3-(1-hexyloxyethyl)-2-methyloxyphenyl]thiazol-2-ylcarbamoyl}phenyl)-2-methylacrylic acid], the EC50 amounted to 1.09 nM. Consider `CCCO[C@H](c1cccc(-c2csc(NC(=O)c3cc(Cl)c(/C=C(\C)C(=O)O)c(Cl)c3)n2)c1OC)C(C)(C)C` [Compound C-9B, (S)-(E)-3-(2,6-dichloro-4-{4-[3-(2,2-dimethyl-1-propyloxypropyl)-2-methyloxyphenyl]thiazol-2-ylcarbamoyl}phenyl)-2-methylacrylic acid], for which the EC50 was 0.09 nM.

Test system in another series: not given
Experiment: not given
Settings: not given
With `CCCCCC[C@H](OC)c1cccc(-c2csc(NC(=O)c3cc(Cl)c(/C=C(\C)C(=O)O)c(Cl)c3)n2)c1OC` [Compound C-1B, (S)-(E)-3-(2,6-dichloro-4-{4-[2-methyloxy-3-(1-methyloxyheptyl)-phenyl]thiazol-2-ylcarbamoyl}phenyl)-2-methylacrylic acid], the melting point (as a rule, the temperature of the solid-liquid transition) was in the range of 162 to 164 °C.
